Where two headings read alike, the source gives them in different places. Numbered stars: 1 amine (or outer) side, 2 acyl side, 3 side chain; on linkers, the order of the positions; unused ones are H or OH. Bridge positions count the residues as written; N and C are the ends. Square brackets hold non-standard residues; d marks the D form. Peptide text beside a SMILES is read from it. I, II: the chains in the order shown. * marks the point of attachment. X2 = O=C(CCN1C(=O)CC([*:1])C1=O)NCCOCCOCCOCCOCCOCCOCCOCCOCCOCCOCCOCCNC(=O)CCN1C(=O)CC([*:2])C1=O; Succinimide(1-Et,3-yl) = CCN1C(=O)CC(*)C1=O; Cbz = O=C(OCc1ccccc1)*
Legend:
[1] = test system: viral glycoproteins (H and F); CD150; test: beta-galactosidase complementation-based fusion assay, CD150 target cells; conditions: for IC90: read-out: CD150 IC90
[2] = target: viral glycoproteins (H and F); Nectin-4 (Measles virus, UniProt Q786F3); test: beta-galactosidase complementation-based fusion assay, Nectin-4 target cells
[3] = target: measles virus (MeV) fusion protein F, wild type, expressed on cells (measles virus) (UniProt Q786F3); test: cell-based or functional assay
[4] = Nectin4 IC50, Table 3 (extended version)

| Molecule | IC90 [1] | IC90 ([2]; read-out: Nectin4 IC90) | IC50 [1] | further results |
| --- | --- | --- | --- | --- |
| CCN1C(=O)CC(SC[C@H](NC(=O)CNC(=O)[C@H](Cc2ccccc2)NC(=O)[C@@H](Cc2ccccc2)NC(=O)OCc2ccccc2)C(=O)O)C1=O (some centres unmarked) [Monomer N-Maleimide FIP (no GSGSG)] (Cbz-[dF]FGC(Succinimide(1-Et,3-yl))-OH) | > 1 µM | > 1 µM | – | – |
| CC(C)CCC[C@@H](C)[C@H]1CC[C@H]2[C@@H]3CC=C4C[C@@H](OC(=O)CCOCCOCCOCCOCCNC(=O)CSC[C@H](NC(=O)CNC(=O)[C@H](Cc5ccccc5)NC(=O)[C@@H](Cc5ccccc5)NC(=O)OCc5ccccc5)C(=O)O)CC[C@]4(C)[C@H]3CC[C@]12C [FIP-peg4-chol (no GSGSG)] | > 0.9 µM | > 1 µM | – | – |
| O=C(CCN1C(=O)CC(SC[C@H](NC(=O)CNC(=O)[C@H](CO)NC(=O)CNC(=O)[C@H](CO)NC(=O)CNC(=O)CNC(=O)[C@H](Cc2ccccc2)NC(=O)[C@@H](Cc2ccccc2)NC(=O)OCc2ccccc2)C(=O)O)C1=O)NCCOCCOCCOCCOCCOCCOCCOCCOCCOCCOCCOCCNC(=O)CCN1C(=O)CC(SC[C@H](NC(=O)CNC(=O)[C@H](CO)NC(=O)CNC(=O)[C@H](CO)NC(=O)CNC(=O)CNC(=O)[C@H](Cc2ccccc2)NC(=O)[C@@H](Cc2ccccc2)NC(=O)OCc2ccccc2)C(=O)O)C1=O (some centres unmarked) [[FIP]2-peg11] (I: Cbz-[dF]FGGSGSGC-OH / II: Cbz-[dF]FGGSGSGC-OH; linker I:9-II:9 via X2) | > 1 µM | > 10 µM | > 1 µM | IC50 [2, 4]: > 10 µM |
| CC(C)CCC[C@@H](C)[C@H]1CC[C@H]2[C@@H]3CC=C4C[C@@H](OCCN(CCNC(=O)CCOCCOCCOCCOCCNC(=O)CCCN5C(=O)CC(SC[C@H](NC(=O)CNC(=O)[C@H](Cc6ccccc6)NC(=O)[C@@H](Cc6ccccc6)NC(=O)OCc6ccccc6)C(=O)O)C5=O)CCNC(=O)CCOCCOCCOCCOCCNC(=O)CCCN5C(=O)CC(SC[C@H](NC(=O)CNC(=O)[C@H](Cc6ccccc6)NC(=O)[C@@H](Cc6ccccc6)NC(=O)OCc6ccccc6)C(=O)O)C5=O)CC[C@]4(C)[C@H]3CC[C@]12C (some centres unmarked) [[FIP-peg4]2-chol (no GSGSG)] | > 1 µM | > 1 µM | > 0.7 µM | IC50 [2, 4]: > 1 µM |
| CC(C)CCC[C@@H](C)[C@H]1CC[C@H]2[C@@H]3CC=C4C[C@@H](OC(=O)CCOCCOCCOCCOCCOCCOCCOCCOCCOCCOCCOCCOCCOCCOCCOCCOCCOCCOCCOCCOCCOCCOCCOCCOCCNC(=O)CSC[C@H](NC(=O)CNC(=O)[C@H](Cc5ccccc5)NC(=O)[C@@H](Cc5ccccc5)NC(=O)OCc5ccccc5)C(=O)O)CC[C@]4(C)[C@H]3CC[C@]12C [peg24 chol [FIP] (no GSGSG)] | 0.544 ± 0.0348 µM | 0.568 ± 0.186 µM | – | – |
| CC[C@H](C)[C@H](NC(=O)[C@H](C)NC(=O)[C@H](CC(N)=O)NC(=O)CNC(=O)[C@H](CC(C)C)NC(=O)[C@H](CC(N)=O)NC(=O)[C@@H](NC(=O)CNC(=O)[C@@H](NC(=O)[C@H](CC(=O)O)NC(=O)[C@H](CC(C)C)NC(=O)[C@H](CCCNC(=N)N)NC(=O)[C@H](CCC(=O)O)NC(=O)[C@H](CC(C)C)NC(=O)[C@H](CO)NC(=O)[C@@H](NC(=O)[C@@H]1CCCN1C(=O)[C@@H]1CCCN1C(=O)CNC(=O)[C@H](CO)NC(=O)CNC(=O)[C@H](CO)NC(=O)CNC(=O)CNC(=O)[C@H](Cc1ccccc1)NC(=O)[C@@H](Cc1ccccc1)NC(=O)OCc1ccccc1)[C@@H](C)CC)C(C)C)[C@@H](C)O)C(=O)N[C@@H](C)C(=O)N[C@@H](CCCCN)C(=O)N[C@@H](CC(C)C)C(=O)N[C@@H](CCC(=O)O)C(=O)N[C@@H](CC(=O)O)C(=O)N[C@@H](C)C(=O)N[C@@H](CCCCN)C(=O)N[C@@H](CCC(=O)O)C(=O)N[C@@H](CC(C)C)C(=O)N[C@@H](CC(C)C)C(=O)N[C@@H](CCC(=O)O)C(=O)N[C@@H](CO)C(=O)N[C@@H](CO)C(=O)N[C@@H](CC(=O)O)C(=O)N[C@@H](CCC(N)=O)C(=O)N[C@H](C(=O)N[C@@H](CC(C)C)C(=O)N[C@@H](CCCNC(=N)N)C(=O)N[C@@H](CSC1CC(=O)N(CCC(=O)NCCOCCOCCOCCOCCOCCOCCOCCOCCOCCOCCOCCNC(=O)CCN2C(=O)CC(SC[C@H](NC(=O)[C@H](CCCNC(=N)N)NC(=O)[C@H](CC(C)C)NC(=O)[C@@H](NC(=O)[C@H](CCC(N)=O)NC(=O)[C@H](CC(=O)O)NC(=O)[C@H](CO)NC(=O)[C@H](CO)NC(=O)[C@H](CCC(=O)O)NC(=O)[C@H](CC(C)C)NC(=O)[C@H](CC(C)C)NC(=O)[C@H](CCC(=O)O)NC(=O)[C@H](CCCCN)NC(=O)[C@H](C)NC(=O)[C@H](CC(=O)O)NC(=O)[C@H](CCC(=O)O)NC(=O)[C@H](CC(C)C)NC(=O)[C@H](CCCCN)NC(=O)[C@H](C)NC(=O)[C@@H](NC(=O)[C@H](C)NC(=O)[C@H](CC(N)=O)NC(=O)CNC(=O)[C@H](CC(C)C)NC(=O)[C@H](CC(N)=O)NC(=O)[C@@H](NC(=O)CNC(=O)[C@@H](NC(=O)[C@H](CC(=O)O)NC(=O)[C@H](CC(C)C)NC(=O)[C@H](CCCNC(=N)N)NC(=O)[C@H](CCC(=O)O)NC(=O)[C@H](CC(C)C)NC(=O)[C@H](CO)NC(=O)[C@@H](NC(=O)[C@@H]3CCCN3C(=O)[C@@H]3CCCN3C(=O)CNC(=O)[C@H](CO)NC(=O)CNC(=O)[C@H](CO)NC(=O)CNC(=O)CNC(=O)[C@H](Cc3ccccc3)NC(=O)[C@@H](Cc3ccccc3)NC(=O)OCc3ccccc3)[C@@H](C)CC)C(C)C)[C@@H](C)O)[C@@H](C)CC)[C@@H](C)CC)C(=O)O)C2=O)C1=O)C(=O)O)[C@@H](C)CC (some centres unmarked) [[FIP-HRC450-485]2-peg11 (no GSGSG)] | > 1 µM | > 1 µM | – | – |
| CC[C@H](C)[C@H](NC(=O)[C@H](C)NC(=O)[C@H](CC(N)=O)NC(=O)CNC(=O)[C@H](CC(C)C)NC(=O)[C@H](CC(N)=O)NC(=O)[C@@H](NC(=O)CNC(=O)[C@@H](NC(=O)[C@H](CC(=O)O)NC(=O)[C@H](CC(C)C)NC(=O)[C@H](CCCNC(=N)N)NC(=O)[C@H](CCC(=O)O)NC(=O)[C@H](CC(C)C)NC(=O)[C@H](CO)NC(=O)[C@@H](NC(=O)[C@@H]1CCCN1C(=O)[C@@H]1CCCN1C(=O)CNC(=O)[C@H](CO)NC(=O)CNC(=O)[C@H](CO)NC(=O)CNC(=O)CNC(=O)[C@H](Cc1ccccc1)NC(=O)[C@@H](Cc1ccccc1)NC(=O)OCc1ccccc1)[C@@H](C)CC)C(C)C)[C@@H](C)O)C(=O)N[C@@H](C)C(=O)N[C@@H](CCCCN)C(=O)N[C@@H](CC(C)C)C(=O)N[C@@H](CCC(=O)O)C(=O)N[C@@H](CC(=O)O)C(=O)N[C@@H](C)C(=O)N[C@@H](CCCCN)C(=O)N[C@@H](CCC(=O)O)C(=O)N[C@@H](CC(C)C)C(=O)N[C@@H](CC(C)C)C(=O)N[C@@H](CCC(=O)O)C(=O)N[C@@H](CO)C(=O)N[C@@H](CO)C(=O)N[C@@H](CC(=O)O)C(=O)N[C@@H](CCC(N)=O)C(=O)N[C@H](C(=O)N[C@@H](CC(C)C)C(=O)N[C@@H](CCCNC(=N)N)C(=O)N[C@@H](CSC1CC(=O)N(CCCC(=O)NCCOCCOCCOCCOCCC(=O)NCCN(CCNC(=O)CCOCCOCCOCCOCCNC(=O)CCCN2C(=O)CC(SC[C@H](NC(=O)[C@H](CCCNC(=N)N)NC(=O)[C@H](CC(C)C)NC(=O)[C@@H](NC(=O)[C@H](CCC(N)=O)NC(=O)[C@H](CC(=O)O)NC(=O)[C@H](CO)NC(=O)[C@H](CO)NC(=O)[C@H](CCC(=O)O)NC(=O)[C@H](CC(C)C)NC(=O)[C@H](CC(C)C)NC(=O)[C@H](CCC(=O)O)NC(=O)[C@H](CCCCN)NC(=O)[C@H](C)NC(=O)[C@H](CC(=O)O)NC(=O)[C@H](CCC(=O)O)NC(=O)[C@H](CC(C)C)NC(=O)[C@H](CCCCN)NC(=O)[C@H](C)NC(=O)[C@@H](NC(=O)[C@H](C)NC(=O)[C@H](CC(N)=O)NC(=O)CNC(=O)[C@H](CC(C)C)NC(=O)[C@H](CC(N)=O)NC(=O)[C@@H](NC(=O)CNC(=O)[C@@H](NC(=O)[C@H](CC(=O)O)NC(=O)[C@H](CC(C)C)NC(=O)[C@H](CCCNC(=N)N)NC(=O)[C@H](CCC(=O)O)NC(=O)[C@H](CC(C)C)NC(=O)[C@H](CO)NC(=O)[C@@H](NC(=O)[C@@H]3CCCN3C(=O)[C@@H]3CCCN3C(=O)CNC(=O)[C@H](CO)NC(=O)CNC(=O)[C@H](CO)NC(=O)CNC(=O)CNC(=O)[C@H](Cc3ccccc3)NC(=O)[C@@H](Cc3ccccc3)NC(=O)OCc3ccccc3)[C@@H](C)CC)C(C)C)[C@@H](C)O)[C@@H](C)CC)[C@@H](C)CC)C(=O)O)C2=O)CCO[C@H]2CC[C@@]3(C)C(=CC[C@H]4[C@@H]5CC[C@H]([C@H](C)CCCC(C)C)[C@@]5(C)CC[C@@H]43)C2)C1=O)C(=O)O)[C@@H](C)CC (some centres unmarked) | 0.287 ± 0.0245 µM | 0.22 ± 0.189 µM | 0.0589 ± 0.0698 µM | IC50 [2]: 0.0602 ± 0.0655 µM |
| O=C(CCN1C(=O)CC(SC[C@H](NC(=O)CNC(=O)[C@H](Cc2ccccc2)NC(=O)[C@@H](Cc2ccccc2)NC(=O)OCc2ccccc2)C(=O)O)C1=O)NCCOCCOCCOCCOCCOCCOCCOCCOCCOCCOCCOCCNC(=O)CCN1C(=O)CC(SC[C@H](NC(=O)CNC(=O)[C@H](Cc2ccccc2)NC(=O)[C@@H](Cc2ccccc2)NC(=O)OCc2ccccc2)C(=O)O)C1=O (some centres unmarked) [[FIP]2-peg11 (no GSGSG)] | > 1 µM | > 1 µM | > 0.6 µM | IC90 [2]: > 10 µM; IC50 ([2]; IC50, Table 2 (salient peptides), Nectin-4 target cells): > 10 µM; IC50 [2, 4]: > 0.7 µM |
| FIP (peptide) | – | – | – | IC50, beta-galactosidase complementation-based fusion assay, Nectin-4 target cells [3]: 9.72 µM; IC90, beta-galactosidase complementation-based fusion assay, Nectin-4 target cells [3]: > 10 µM |
| FIP-HRC450-485, Monomer N-Maleimide (peptide) | – | – | – | IC50, beta-galactosidase complementation-based fusion assay, Nectin-4 target cells [3]: > 1 µM; IC90, beta-galactosidase complementation-based fusion assay, Nectin-4 target cells [3]: > 1 µM |
| FIP-HRC450-485 (no GSGSG) (peptide) | – | – | – | IC50, beta-galactosidase complementation-based fusion assay, Nectin-4 target cells [3]: 2.77 µM; IC90, beta-galactosidase complementation-based fusion assay, Nectin-4 target cells [3]: 6.37 µM |
